PubChem BioAssay (NCI)
“And” between values parts separate entries of the source, which are not always exact repeats. Identical values can stand only once.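 Protocol summary: plate cells (96-well), add compound at 5 concentrations, incubate 48 h, interpolate endpoints linearly. At the GI50, growth is halved. TGI: total growth inhibition.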

Key:
Assay in all cases: NCI tumour cell line growth inhibition, 48 h
[1] = system: DMS 114 small cell lung
[2] = system: DMS 273 small cell lung
[3] = system: HL-60(TB) leukemia
[4] = system: HOP-92 NSCLC
[5] = system: KM12 colon
[6] = system: MALME-3M melanoma
[7] = system: NCI-H522 lung
[8] = system: P388 leukemia
[9] = system: SK-MEL-28 melanoma
[10] = system: SN12K1 renal
[11] = system: SNB-78 CNS
[12] = system: ACHN renal
[13] = system: MDA-MB-435

Row | Compound | TGI [1] [µM] | TGI [2] [µM] | TGI [3] | TGI [4] [µM] | TGI [5] | TGI [6] | TGI [7] [µM] | TGI [8] [µM] | TGI [9] | TGI [10] | TGI [11] | TGI [12] [µM] | TGI [13] [µM] | GI50 [2] [µM] | GI50 [3] | GI50 [5] [µM] | GI50 [6] [µM] | GI50 [9] | GI50 [10] [µM] | GI50 [11]
1 | OCC1OC(n2cnc3c2NC=NC[C@H]3O)C(O)C1O (stereo partly drawn) | > 450 | > 450 | 284 µM | > 414 | > 450 µM | > 450 µM | > 450 | > 450 | > 450 µM | > 450 µM | > 450 µM | – | – | – | – | – | – | – | – | –
2 | CCOC(=O)c1csc(NC(=O)C(C)N2CCCCC2)n1 (stereo not drawn) | – | – | > 100 µM | > 100 | > 100 µM | > 100 µM | – | – | > 100 µM | – | – | > 100 | > 100 | – | – | – | – | – | – | –
3 | CCCCN1C=CN2c3nc4cc(C)c(C)cc4n3C(C(=O)OC)=C(C(=O)OC)C12 (stereo not drawn) | > 100 | > 100 | > 100 µM | > 100 | – | > 100 µM | > 100 | – | – | – | > 100 µM | > 100 | – | – | – | – | – | – | – | –
4 | C=C1C(=O)O[C@H]2[C@H]1[C@@H](OC(=O)C=C(C)C)CC1=C[C@@H](C[C@@]3(C)O[C@@H]23)OC1=O | – | – | 0.977 µM and 4.9 µM | 4.15 | 15.7 µM and 29.7 µM | 22.6 µM and 8.1 µM | 3.08 | 0.914 | 46 µM and 8.18 µM | 21.3 µM and 35.5 µM | 15.1 µM and 40.2 µM | – | – | 24.7 | 0.292 µM and 2.24 µM | 10.4 | 3.22 | 8.31 µM and 3.23 µM | 17.6 | 2.35 µM and 10.6 µM
5 | C=CCn1c(=O)n(CC=C)c(=O)n(CC=C)c1=O | > 100 | > 100 | > 100 µM | > 100 | > 100 µM | > 100 µM | > 100 | – | > 100 µM | – | > 100 µM | > 100 | – | – | – | – | – | – | – | –
6 | COc1ccnc2c1C(=O)c1nc3ccccc3c3ccnc-2c13 | – | – | 0.29 µM | – | 0.588 µM | 1.3 µM | 0.262 | – | 7.37 µM | – | – | 0.41 | 1.52 | – | – | – | – | – | – | –
7 | CN(C)C(=O)OCOC(=O)N(C)C | > 100 | > 100 | > 31.6 µM | > 100 | > 100 µM | > 100 µM | > 100 | > 100 | > 100 µM | > 100 µM | > 100 µM | – | – | – | – | – | – | – | – | –
8 | COC(=O)c1ccc(/C=C2\N=C(C)OC2=O)cc1 | > 100 | > 100 | > 100 µM | > 100 | > 100 µM | – | > 100 | – | > 100 µM | – | – | > 100 | – | – | – | – | – | – | – | –
9 | CCOC(=O)CC1CCN(C(=O)c2ccccc2)C2Cc3c([nH]c4ccccc34)C12C[N+](=O)[O-] (stereo not drawn) | – | – | > 100 µM | > 100 | > 100 µM | > 100 µM | > 100 | – | > 100 µM | – | – | > 100 | > 100 | – | – | – | – | – | – | –
10 | COC(=O)C1OC(Oc2cc(O)c3c(=O)cc(-c4ccc(O)cc4)oc3c2)C(O)C(O)C1O (stereo not drawn) | > 100 | > 100 | > 100 µM | > 100 | > 100 µM | > 100 µM | > 100 | > 100 | > 100 µM | > 100 µM | > 100 µM | – | – | – | – | – | – | – | – | –
11 | CO[C@H]1[C@@H](O)[C@@H](C)O[C@@H](O[C@H]2CC[C@@]3(C)[C@H](CC[C@@H]4[C@@H]3CC[C@]3(C)[C@@H](C5=CC(=O)OC5)[C@@H](OC(C)=O)C[C@]43O)C2)[C@@H]1O | – | – | 0.332 µM | 0.577 | 0.592 µM | 0.0445 µM | 0.0368 | – | > 50 µM | – | – | 0.0575 | 0.407 | – | – | – | – | – | – | –
12 | CC(=O)OCC1OC(Nc2ncc(-c3ccc(C)cc3)s2)C(OC(C)=O)C(OC(C)=O)C1OC(C)=O (stereo not drawn) | > 100 | > 100 | 43.7 µM | > 100 | > 94.1 µM | > 100 µM | > 100 | 72.5 | > 100 µM | > 100 µM | > 100 µM | – | – | – | – | – | – | – | – | –
13 | O=C1NC(=O)C(CCO)(c2ccccc2)C(=O)N1 | > 100 | > 100 | > 100 µM | > 100 | > 100 µM | > 100 µM | > 100 | > 100 | > 100 µM | > 100 µM | > 100 µM | – | – | – | – | – | – | – | – | –
14 | O=C(CC(c1ccccc1)N1CCCCC1)c1ccccc1 (stereo not drawn) | – | – | 33.7 µM | 32.7 | 22.6 µM | 30.7 µM | 28.6 | – | 32.4 µM | – | – | 30.7 | 27.4 | – | – | – | – | – | – | –
15 | O=c1c(-c2ccccc2)c(SCCCN2CCN(c3cccc(Cl)c3)CC2)n(-c2ccccc2)c(=S)n1-c1ccccc1 | – | – | > 100 µM | > 100 | > 100 µM | > 100 µM | > 100 | – | > 100 µM | – | – | > 100 | 42.4 | – | – | – | – | – | – | –
